{
  "source": "PubChem BioAssay (NCI)",
  "test_in_all_cases": "NCI tumour cell line growth inhibition, 48 h",
  "key": {"786-0 renal": {"system": "786-0 renal"}, "MDA-MB-231 breast": {"system": "MDA-MB-231 breast"}, "PC-3 prostate": {"system": "PC-3 prostate"}, "SN12K1 renal": {"system": "SN12K1 renal"}, "DMS 114 small cell lung": {"system": "DMS 114 small cell lung"}, "DLD-1 colon": {"system": "DLD-1 colon"}, "HOP-18 NSCLC": {"system": "HOP-18 NSCLC"}, "XF 498 CNS": {"system": "XF 498 CNS"}, "P388/ADR leukemia": {"system": "P388/ADR leukemia"}, "P388 leukemia": {"system": "P388 leukemia"}, "SNB-78 CNS": {"system": "SNB-78 CNS"}, "LXFL 529 NSCLC": {"system": "LXFL 529 NSCLC"}},
  "note": "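Following 48 hours of exposure in 96-well plates, responses at five concentrations were used to interpolate endpoints linearly. Definition used: TGI = concentration required for complete inhibition of growth.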",
  "data": [
    {"smiles": "O=[N+]([O-])c1ccc(NNN=Nc2ccc(-c3nc4ccccc4s3)cc2)c([N+](=O)[O-])c1", "values": [
      {"measurement": "TGI", "setting": "786-0 renal", "value": 50.6, "unit": "µM"},
      {"measurement": "TGI", "setting": "MDA-MB-231 breast", "value": 64.3, "unit": "µM"},
      {"measurement": "TGI", "setting": "PC-3 prostate", "value": 73.3, "unit": "µM"}
    ]},
    {"smiles": "O=C(CC(Cl)=C(Cl)Cl)c1ccccc1", "values": [
      {"measurement": "TGI", "setting": "786-0 renal", "value": 48, "unit": "µM"},
      {"measurement": "TGI", "setting": "MDA-MB-231 breast", "value": "> 100", "unit": "µM"},
      {"measurement": "TGI", "setting": "PC-3 prostate", "value": "> 100", "unit": "µM"}
    ]},
    {"smiles": "c1ccc([I+]c2ccccc2)cc1", "values": [
      {"measurement": "TGI", "setting": "786-0 renal", "value": "> 100", "unit": "µM"},
      {"measurement": "TGI", "setting": "MDA-MB-231 breast", "value": "> 100", "unit": "µM"},
      {"measurement": "TGI", "setting": "PC-3 prostate", "value": "> 100", "unit": "µM"}
    ]},
    {"smiles": "CC1=CC2c3cccc4[nH]cc(c34)CC2N(C)C1", "note": "(stereo not given)", "values": [
      {"measurement": "TGI", "setting": "SN12K1 renal", "value": "> 31.6", "unit": "µM"},
      {"measurement": "TGI", "setting": "DMS 114 small cell lung", "value": "> 100", "unit": "µM"},
      {"measurement": "TGI", "setting": "DLD-1 colon", "value": "> 88.2", "unit": "µM"},
      {"measurement": "TGI", "setting": "HOP-18 NSCLC", "value": 82.4, "unit": "µM"},
      {"measurement": "TGI", "setting": "XF 498 CNS", "value": 99.1, "unit": "µM"},
      {"measurement": "TGI", "setting": "P388/ADR leukemia", "value": "> 73.1", "unit": "µM"},
      {"measurement": "TGI", "setting": "P388 leukemia", "value": "> 100", "unit": "µM"},
      {"measurement": "TGI", "setting": "SNB-78 CNS", "value": "> 100", "unit": "µM"}
    ]},
    {"smiles": "BrCC[N+]12CC[N+](CCBr)(CC1)C2", "values": [
      {"measurement": "TGI", "setting": "786-0 renal", "value": "> 100", "unit": "µM"},
      {"measurement": "TGI", "setting": "MDA-MB-231 breast", "value": "> 100", "unit": "µM"},
      {"measurement": "TGI", "setting": "PC-3 prostate", "value": "> 100", "unit": "µM"}
    ]},
    {"smiles": "O=C(O)C1CCCCN1c1ccccc1[N+](=O)[O-]", "note": "(stereo not given)", "values": [
      {"measurement": "TGI", "setting": "DMS 114 small cell lung", "value": "> 100", "unit": "µM"},
      {"measurement": "TGI", "setting": "DLD-1 colon", "value": "> 100", "unit": "µM"},
      {"measurement": "TGI", "setting": "HOP-18 NSCLC", "value": "> 100", "unit": "µM"},
      {"measurement": "TGI", "setting": "XF 498 CNS", "value": "> 100", "unit": "µM"},
      {"measurement": "TGI", "setting": "SNB-78 CNS", "value": "> 100", "unit": "µM"},
      {"measurement": "TGI", "setting": "LXFL 529 NSCLC", "value": "> 100", "unit": "µM"}
    ]},
    {"smiles": "CC(Cl)CC(=O)OCC1CCCN2CCCCC12", "note": "(stereo not given)", "values": [
      {"measurement": "TGI", "setting": "786-0 renal", "value": "> 100", "unit": "µM"},
      {"measurement": "TGI", "setting": "MDA-MB-231 breast", "value": "> 100", "unit": "µM"},
      {"measurement": "TGI", "setting": "PC-3 prostate", "value": "> 100", "unit": "µM"}
    ]},
    {"smiles": "Cc1ccc2c(=O)c3ccccc3sc2c1", "values": [
      {"measurement": "TGI", "setting": "DLD-1 colon", "value": "> 100", "unit": "µM"},
      {"measurement": "TGI", "setting": "HOP-18 NSCLC", "value": "> 100", "unit": "µM"},
      {"measurement": "TGI", "setting": "LXFL 529 NSCLC", "value": "> 100", "unit": "µM"}
    ]},
    {"smiles": "CCC1NC(N=Nc2ccc([N+](=O)[O-])cc2)(P(=O)(OC(C)C)OC(C)C)OC1=O", "note": "(stereo not given)", "values": [
      {"measurement": "TGI", "setting": "DLD-1 colon", "value": "> 100", "unit": "µM"},
      {"measurement": "TGI", "setting": "XF 498 CNS", "value": "> 100", "unit": "µM"},
      {"measurement": "TGI", "setting": "SNB-78 CNS", "value": "> 100", "unit": "µM"},
      {"measurement": "TGI", "setting": "LXFL 529 NSCLC", "value": "> 100", "unit": "µM"}
    ]},
    {"smiles": "O=C(Nc1ccc(Cl)cc1)c1cc(S(=O)(=O)Nc2nnc3c(Cl)cc(C(F)(F)F)cn23)c(S)cc1Cl", "values": [
      {"measurement": "TGI", "setting": "786-0 renal", "value": "> 100", "unit": "µM"},
      {"measurement": "TGI", "setting": "MDA-MB-231 breast", "value": "> 100", "unit": "µM"},
      {"measurement": "TGI", "setting": "PC-3 prostate", "value": "> 100", "unit": "µM"}
    ]},
    {"smiles": "CCn1cnnc1-c1nsc2ccccc12", "values": [
      {"measurement": "TGI", "setting": "DMS 114 small cell lung", "value": "> 100", "unit": "µM"},
      {"measurement": "TGI", "setting": "HOP-18 NSCLC", "value": "> 100", "unit": "µM"},
      {"measurement": "TGI", "setting": "SNB-78 CNS", "value": "> 100", "unit": "µM"},
      {"measurement": "TGI", "setting": "LXFL 529 NSCLC", "value": "> 100", "unit": "µM"}
    ]},
    {"smiles": "C[C@@H]1CC[C@@]2(OC1)O[C@H]1C[C@H]3[C@@H]4CC[C@H]5C[C@@H](OC6OC(CO)C(OC7OC(CO)C(O)C(OC8OCC(O)C(O)C8O)C7OC7OC(CO)C(O)C(O)C7O)C(O)C6O)[C@H](O)C[C@]5(C)[C@H]4CC[C@]3(C)[C@H]1[C@@H]2C", "note": "(stereo not given in full)", "values": [
      {"measurement": "TGI", "setting": "MDA-MB-231 breast", "value": 6.71, "unit": "µM"},
      {"measurement": "TGI", "setting": "PC-3 prostate", "value": 15.3, "unit": "µM"}
    ]},
    {"smiles": "CC(=O)Nc1cccc(N=NN(C)C)c1", "values": [
      {"measurement": "TGI", "setting": "SN12K1 renal", "value": "> 100", "unit": "µM"},
      {"measurement": "TGI", "setting": "DMS 114 small cell lung", "value": "> 100", "unit": "µM"},
      {"measurement": "TGI", "setting": "DLD-1 colon", "value": "> 31.6", "unit": "µM"},
      {"measurement": "TGI", "setting": "HOP-18 NSCLC", "value": "> 100", "unit": "µM"},
      {"measurement": "TGI", "setting": "XF 498 CNS", "value": "> 100", "unit": "µM"},
      {"measurement": "TGI", "setting": "P388/ADR leukemia", "value": "> 100", "unit": "µM"},
      {"measurement": "TGI", "setting": "P388 leukemia", "value": "> 100", "unit": "µM"},
      {"measurement": "TGI", "setting": "SNB-78 CNS", "value": "> 100", "unit": "µM"}
    ]},
    {"smiles": "CN(Cc1cnc2c(N)nc(N)nc2n1)c1ccc(Cl)cc1", "values": [
      {"measurement": "TGI", "setting": "MDA-MB-231 breast", "value": "> 100", "unit": "µM"},
      {"measurement": "TGI", "setting": "PC-3 prostate", "value": "> 100", "unit": "µM"}
    ]}
  ]
}
